Experimental data published in patent US20010048926A1, “SYNTHETIC PEPTIDE VACCINES FOR DENTAL CARIES” (priority 1992, published 2001).

Key:
[1] = tested on: anti-GGY serum; experiment: Epitope mapping by ELISA inhibition, anti-GGY serum on GGY-coated plates; type: binding, rat; details: anti-GGY serum preincubated with heptamer or intact peptide; FIG. 8
Procedure: Epitope Mapping: B cell epitopes were mapped on the GGY and AND peptides by an ELISA inhibition technique. Anti-GGY or anti-AND sera were preincubated with 13 separate heptamers representing the incremental peptide sequence of the respective peptide, or with intact peptide, followed by the conventional ELISA with intact peptide-coated plates. B cell epitopes were indicated by a significant reduction in absorbance.

[2] = target: T1, CAT peptide construct (Streptococcus mutans serotype c, UniProt P08987); experiment: Cross-reactivity ELISA, plates coated with CAT peptide construct; type: binding; details: day 63 sera; FIG. 4
T1 construct: residues 442-462 of S. mutans GTF-B; purchased Applied Diagnostics, Foster City, Calif; host or cells: chemical solid phase synthesis
T1 sequence (P08987 442-462 limits assumed): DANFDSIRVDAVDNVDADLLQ
Procedure: (§1) Immunogenicity of Peptides: Sprague Dawley CD strain 43 day-old male rats (Charles River Laboratories) were used for injection. Six groups of 4-5 rats were injected subcutaneously in the vicinity of the salivary glands with 50 μg each of GGY, AND, SAND or CAT peptide constructs, 10 μg of GTF, or sham-immunized with buffer alone. The initial injection included complete Freund adjuvant (CFA; Difco); two subsequent injections at 21-day intervals included incomplete Freund adjuvant. Animals were bled prior to injection and 14-21 days after each injection. Serum from coagulated and centrifuged blood was stored frozen at −20° C. until use.
ELISA: Serum IgG and salivary IgA antibodies were tested by enzyme-linked immunosorbent assay (ELISA). Polystyrene microtiter plates (Flow Laboratories) were coated with […] of each peptide construct or 0.5 μg of S. sobrinus GTF. Antibody activity was then measured by incubation with 1:100 to 1:10^6 dilutions of sera, or 1:4 to 1:32 dilutions of saliva. […] Reactivity was recorded as absorbance (A405 nm) in a micro plate reader (Biotek Instruments). Data are reported as absorbance (A405 nm), reciprocal titer, or as ELISA units (EU) which were calculated relative to the levels of appropriate reference sera or salivas from Sprague Dawley rats thrice immunized with the respective peptide construct. […]

[3] = tested on: inducing peptide construct; experiment: ELISA of serum IgG antibody to the inducing (homologous) peptide construct in immunized rats; type: in vivo, Sprague Dawley rats; details: for IgG antibody levels to GGY: pre-infection sera
Procedure: as §1
(§2) ELISA: Serum IgG and salivary IgA antibodies were tested by enzyme-linked immunosorbent assay (ELISA). Polystyrene microtiter plates (Flow Laboratories) were coated with […] of each peptide construct or 0.5 μg of S. sobrinus GTF. Antibody activity was then measured by incubation with 1:100 to 1:10^6 dilutions of sera, or 1:4 to 1:32 dilutions of saliva. Plates were then developed for IgG antibody rabbit anti-rat IgG followed in sequence by alkaline phosphatase goat anti-rabbit IgG (Biosource Inc.) and p-nitrophenylphosphate (Sigma). A mouse monoclonal reagent to rat α chain (Zymed, South San Francisco, Calif.) was used with biotinylated goat anti-mouse IgG (TAGO, Inc., Burlingame, Calif.) and avidin-alkaline phosphatase (Cappel) to reveal levels of salivary IgA antibody to peptides. Reactivity was recorded as absorbance (A405 nm) in a micro plate reader (Biotek Instruments). Data are reported as absorbance (A405 nm), reciprocal titer, or as ELISA units (EU) which were calculated relative to the levels of appropriate reference sera or salivas from Sprague Dawley rats thrice immunized with the respective peptide construct. Dilutions of 1:12,800 and 1:6,400 (A405 nm approximately 1.0) were considered 100 EU for serum IgG to the GGY and AND constructs, respectively. Dilutions of 1:32 were considered 100 EU for salivary IgA to both GGY and AND constructs.
(§3) Two experiments were performed. Groups (n=11-12) of 23-26 day-old rats were subcutaneously (sc) injected in the salivary gland vicinity with (experiment 1) GGY (50 μg), AND (50 μg) or GTF(10 μg), or phosphate buffered saline (control animals), or (experiment 2) GGY (50 ;μg) or PBS. Each antigen was incorporated with complete Freund adjuvant in both experiments. Eight (experiment 1) or 14 (experiment 2) days later, rats were reinjected with PBS or with the same antigen and dose in incomplete Freund adjuvant. Six (experiment 1) or 12 (experiment 2) days after the second injection, animals were bled from the tail vein, and saliva was collected after injection of pilocarpine (1.0 mg/100 g body weight). Fourteen (experiment 1) or 11 (experiment 2) days after the second injection, all rats were orally infected with approximately 10^8 S. mutans for 3 consecutive days. Both experiments were terminated 63 days after initial infection.
(§4) Two experiments were performed to measure the effect of immunization with the eight-branched GGY and AND peptide constructs on experimental dental caries in the Sprague-Dawley rat. In the first experiment, groups of rats were immunized with GGY or AND peptide constructs. In the second experiment groups of rats were immunized only with the GGY peptide construct. Pre-infection sera and salivas were collected for antibody measurement in 39 day old rats in experiment 1 (6 days after the second injection) and 51 day old rats in experiment 2 (12 days after the second injection). In the GGY-immunized rat groups, IgG antibody levels to GGY (experiment 1=21.9+17.8 EU; experiment 2=108.0±4.0 EU) were elevated above those of the sham-immunized groups (experiment 1=1.7±0.2 EU; experiment 2=4.0±3.0 EU) in both experiments and reached statistical significance (p<0.002) in experiment 2.

[4] = tested on: inducing peptide construct; experiment: ELISA of salivary IgA antibody to the inducing (homologous) peptide construct in immunized rats; type: in vivo, Sprague Dawley rats; details: for rats with significant levels of salivary IgA antibody: GGY- and AND-injected rats counted together; for Salivary IgA antibody levels to GGY: pre-infection saliva
Procedure: as §1, §2, §3, §4

GGYEFLLANDVDNSNPVVQ
inhibition of GGY antibody binding to intact peptide-coated plates [1]: completely inhibited | reaction of serum IgG antibody with the CAT peptide [2]: low but significant reaction | responding rats (serum IgG) ([3]; immunization began on day 43 of life, bled 21 days later (day 64 of life), immunogenicity experiment): 4/4 | immunogenicity (percentage of animals responding and titer of responding sera) ([3]; immunogenicity experiment, FIG. 1): at least as high as observed for the positive control CAT peptide | effect of subsequent immunization on serum IgG titers ([3]; immunogenicity experiment, day 21 (one injection) vs day 63 (three injections)): sufficient to induce maximal serum IgG antibody to GGY | serum IgG antibody to the inciting antigen after the first injection ([3]; immunogenicity experiment, rats 43 days old at start, 50 μg sc in CFA, day 21): induced serum IgG antibody to the inciting antigen after the first injection in all rats | IgG antibody levels to GGY ([3]; protection experiment 1, 39 day old rats, 6 days after the second injection): 21.9 ± 17.8 EU | levels of serum IgG antibody (in words) ([3]; protection experiment 1, weanling rats, two injections eight days apart, bled 14 days after onset (day 39 of life)): modest levels | IgG antibody levels to GGY ([3]; protection experiment 2, 51 day old rats, 12 days after the second injection, p<0.002 vs sham): 108.0±4.0 EU | positively responding rats (serum IgG) ([3]; protection experiment 2, weanling rats, two injections 14 days apart, bled 26 days after onset (day 51 of life)): 8/11 | levels of serum IgG antibody (in words) ([3]; protection experiment 2, weanling rats, two injections 14 days apart, bled day 51 of life): significantly elevated levels of serum IgG antibody | rats with significant levels of salivary IgA antibody ([4]; day 21 (one injection)): 7/9 | rats with significant levels of salivary IgA antibody ([4]; day 63 (three injections)): 8/9 | Salivary IgA antibody levels to GGY ([4]; protection experiment 1, 39 day old rats): 5.0±2.0 EU | Salivary IgA antibody levels to GGY ([4]; protection experiment 2, 51 day old rats): 11.7±4.8 EU
